Measured values reported in US20160052936A1, “SPIROINDOLINE DERIVATIVES FOR USE AS GONADOTROPIN-RELEASING HORMONE RECEPTOR ANTAGONISTS” (BAYER PHARMA AKTIENGESELLSCHAFT, priority 2013, published 2016).
pIC50: −log10 of the molar value. Non-standard residues stand in square brackets, D forms with d. Residues, ends and D or L forms follow the SMILES beside them. dPhe(4-Cl) = N[C@H](Cc1ccc(Cl)cc1)C(=O)O; d2Nal = N[C@H](Cc1ccc2ccccc2c1)C(=O)O; dCit = NC(=O)NCCC[C@@H](N)C(=O)O; d3Pal = N[C@H](Cc1cccnc1)C(=O)O

Legend:
human GnRH receptor = target: T1, human GnRH receptor (Homo sapiens, UniProt P30968); assay: IP-One HTRF assay with buserelin stimulation; format: cell-based; details: CHO cells stably expressing human GnRH receptor; buserelin at EC80; read-out: Potency in IP-One HTRF assay with buserelin (at EC80) stimulation, given as IC50
T1 construct: host or cells: CHO cells stably expressing human GnRH receptor (line established by Prof. Thomas Gudermann)
T1 sequence (P30968 1-328): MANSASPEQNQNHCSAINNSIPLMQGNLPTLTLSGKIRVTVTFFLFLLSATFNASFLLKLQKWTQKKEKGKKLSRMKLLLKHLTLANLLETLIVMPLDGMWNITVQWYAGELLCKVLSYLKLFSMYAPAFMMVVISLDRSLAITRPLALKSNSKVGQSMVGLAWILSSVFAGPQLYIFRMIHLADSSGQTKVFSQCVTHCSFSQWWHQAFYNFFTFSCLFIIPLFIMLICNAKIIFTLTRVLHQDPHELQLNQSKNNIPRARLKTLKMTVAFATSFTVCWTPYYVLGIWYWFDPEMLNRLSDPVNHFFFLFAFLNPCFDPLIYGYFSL
Description: By using homogenous time-resolved fluorescence resonance energy transfer (HTRF), the generation of one component of the GnRH-R signalling cascade can be measured. After stimulation of CHO cells stably expressing human GnRH receptor (established by Prof. Thomas Gudermann, currently University of Marburg, Germany; supplied as frozen cell aliquots by Cell Culture Services, Hamburg, Germany) with the EC80 of the GnRH agonist buserelin, Gq protein-coupled receptor signalling cascade is activated resulting in PLC-dependent cleavage of PIP2 to Inositol-1,4,5-triphosphate (IP3) and Diacylglycerol. The second messenger IP3 is degraded intracellularly to myo-inositol. Inhibition of the final degradation step from Inositol-1-phosphate (IP1) to myo-inositol by addition of lithium chloride leads to accumulation of IP1 in the cells. In cell lysates, IP1 can be detected via an antibody-based HTRF detection technology, where IP1 can displace the FRET acceptor IP1-d2 from binding by Terbium-labelled anti-IP1 antibody as donor resulting in a signal decrease. Compounds were tested for their capability of inhibiting GnRH-R activation by buserelin. For all IP-One HTRF® assays reagents of Cisbio Bioassays (IP-One Tb Jumbo kit, #62IPAPEJ; Cisbio Bioassays, Bagnols sur Cèze Cedex, France) were used.
For the assay, frozen cell aliquots were thawed and a cell suspension (3.33×10^6 cells/mL) containing IP1-d2 (dilution 1:40) was prepared and incubated at 37° C. After 1 h 3 μl of the cell suspension were added to 50 nl of a 100-fold concentrated solution of the test compound in DMSO pre-dispensed in a well of a white low-volume 384-well microtiter plate (Greiner Bio-One, Frickenhausen, Germany). […] Plates were incubated for 1 h at 37° C. and 5% carbon dioxide before the cells were lysed by adding 3 μl Terbium-labelled anti-IP1 antibody (1:40) diluted in Conjugate & Lysis buffer as supplied with the kit. After an incubation for 1 h at 22° C. to enable complete cell lysis and antibody binding to free IP1 or IP1-d2, plates were measured in an HTRF reader, e.g. a RUBYstar, PHERAstar (both BMG Labtechnologies, Offenburg, Germany) or a Viewlux (PerkinElmer LAS, Rodgau-Jügesheim, Germany).
From the fluorescence emissions at 665 nm (FRET) and at 620 nm (background signal of Terbium-antibody), the ratio (emission at 665 nm divided by emission at 620 nm) was calculated and the data were normalized (reaction without test compound=0% inhibition; all other assay components except agonist=100% inhibition). On the same microtiter plate, compounds were tested at 10 different concentrations in the range of 20 μM to 1 nM (20 μM, 6.7 μM, 2.2 μM, 0.74 μM, 0.25 μM, 82 nM, 27 nM, 9.2 nM, 3.1 nM and 1 nM; dilution series prepared before the assay at the level of the 100-fold conc. stock solutions by serial 1:3 dilutions in 100% DMSO) in duplicate values for each concentration. By using an in-house software, the IC50 values were calculated by a 4 parameter fit.
Within the meaning of the present invention the antagonist activity is reflected by the ability of a compound of the invention to antagonize human GnRH receptor stimulation in IP-One HTRF® assay at least three times the standard deviation over the background level.

human GnRHR = target: T2, human GnRHR (Homo sapiens, UniProt P30968); assay: Tag-Lite receptor binding assay; details: Hek293 cells transiently transfected with human GnRHR; displacement of green-labelled GnRHR binding peptide; read-out: Potency in receptor binding assay using TAG-LITE technology, given as IC50
T2 construct: own knowledge: Tag-lite cells usually carry an N-terminal SNAP-tag fusion; host or cells: Hek293 cells, transiently transfected, supplied frozen
T2 sequence (P30968 1-328): T1 sequence (P30968 1-328)
Description: 2.2. Tag-Lite® Receptor Binding Assay
This binding assay is based on the fluorescence resonance energy transfer between fluorescence donor labelled human GnRHR and a green-labelled GnRHR binding peptide. Compounds interfering with the ligand binding side of the human GnRHR will replace the labelled peptide resulting in a signal decrease. The assay principle was established by Cisbio Bioassays (Bagnols-sur-Cèze Cedex, France) and further details are available on their homepage.
The assay procedure was further optimized for use in-house with reduced assay volumes. Frozen Hek293 cells, transiently transfected with human GnRHR and Terbium-labelling of the receptor, were supplied by Cisbio Bioassays as well as Tag-Lite buffer and green-labelled GnRHR binding peptide. Cells were thawed and transferred to cold Tag-Lite buffer. A volume of 8 μl of this cell suspension were added to 100 nl of a 160-fold concentrated solution of the test compound in DMSO pre-dispensed in a well of a white low-volume 384-well microtiter plate (Greiner Bio-One, Frickenhausen, Germany). The mixture was incubated for 5 min at room temperature. In the next step either 4 μl Tag-Lite buffer or as control 4 μl of an exceeding amount unlabelled binding peptide in Tag-Lite buffer were transferred to the mixture. The green-labelled GnRHR binding peptide was added in a final step at EC50 in a volume of 4 μl Tag-Lite buffer. After an incubation of 1 h at room temperature plates were measured in a microplate reader, e.g. a PHERAstar (BMG Labtechnologies, Offenburg, Germany) by using a specific optic module.
A ratio from the fluorescence emissions at 520 nm (green fluorescence) and at 490 nm (background signal of Terbium-labelled GnRHR) was calculated and the data were normalized (reaction without test compound=0% inhibition of binding of green-labelled peptide; reaction without test compound with exceeding amount unlabelled binding peptide=100% inhibition of binding of green-labelled peptide). On the same microtiter plate, compounds were tested at 10 different concentrations in the range of 12.5 μM to 0.64 nM (12.5 μM, 4.2 μM, 1.4 μM, 0.46 μM, 0.15 μM, 51 nM, 17 nM, 5.7 nM, 1.9 nM and 0.64 nM; dilution series prepared before the assay at the level of the 160-fold conc. stock solutions by serial 1:3 dilutions in 100% DMSO) in duplicate values for each concentration. By using an in-house software, the IC50 values were calculated by a 4 parameter fit.

[1] = test system: LH level in ovariectomized rats; assay: LH suppression in the ovariectomized rat; format: in vivo; details: 0.1 mg/kg i.p., 8 hours
Description: 2.5. LH Suppression in the Ovariectomized Rat
The in vivo potency of GnRH antagonists can be quantified by a LH suppression test in ovariectomized rats. GnRH triggers the LH release from the pituitary mediated by GnRH receptors. Ovarectomy of adult female rats results in elevated levels of circulating LH due to a lack of negative feedback by gonadal steroids. GnRH antagonists suppress the release of LH and accordingly suppression of LH levels can be used to quantify the in vivo potency of GnRH antagonists.
Female adult rats were ovariectomized surgically and they were allowed to recover for at least one week. The animals received 0.5 mg/kg, 3 mg/kg or 10 mg/kg of Example 3.1 by single per oral administration. For comparison reasons a vehicle control and a positive control, 0.1 mg/kg cetrorelix (i.p.), were given once. At 0 min, 15 min, 30 min, 1 hour, 2 hours, 4 hours, 8 hours and 24 hours after compound administration blood was taken from the retro orbital plexus (n=6 per blood withdrawal) for the measurement of serum LH and serum compound levels.
As nonbinding explanatory example of compounds according to the invention FIG. 1 represents the LH level following administration of the compound according to Example 3.1, to ovariectomized adult rats. [Filled circle: Vehicle; Circle, dotted black line: Cetrorelix (0.1 mg/kg); Triangle: Example 3.1 (0.5 mg/kg); Reverse triangle: Example 3.1 (3 mg/kg); Diamond: Example 3.1 (10 mg/kg)]. Values are given as mean+standard deviation (n=6).

Structure (SMILES)	pIC50 (human GnRH receptor)	pIC50 (human GnRHR)	LH suppression [1]
N#Cc1ccc(S(=O)(=O)N2c3ccc(C(=O)NCc4ncc(C(F)(F)F)cc4Cl)cc3C3(CCS(=O)(=O)CC3)C2C2CC2)cc1 (racemic) [Example 8, N-{[3-chloro-5-(trifluoromethyl)pyridin-2-yl]methyl}-1-[(4-cyanophenyl)sulfonyl]-2-cyclopropyl-1,2,2′,3′,5′,6′-hexahydrospiro[indole-3,4′-thiopyran]-5-carboxamide 1′,1′-dioxide]	7.66	7.66	
O=C(NCc1ncc(C(F)(F)F)cc1Cl)c1ccc2c(c1)C1(CCS(=O)(=O)CC1)C(C1CC1)N2S(=O)(=O)c1cccc(OC(F)F)c1 (racemic) [Example 14, N-{[3-chloro-5-(trifluoromethyl)pyridin-2-yl]methyl}-2-cyclopropyl-1-{[3-(difluoromethoxy)phenyl]sulfonyl}-1,2,2′,3′,5′,6′-hexahydrospiro[indole-3,4′-thiopyran]-5-carboxamide 1′,1′-dioxide]	7.09	7.10	
O=C(NCc1ncc(C(F)(F)F)cc1Cl)c1ccc2c(c1)C1(CCS(=O)(=O)CC1)[C@@H](C1CC1)N2S(=O)(=O)c1ccc(F)cc1 [Example 3.2, (2R)—N-{[3-chloro-5-(trifluoromethyl)pyridin-2-yl]methyl}-2-cyclopropyl-1-[(4-fluorophenyl)sulfonyl]-1,2,2′,3′,5′,6′-hexahydrospiro[indole-3,4′-thiopyran]-5-carboxamide 1′,1′-dioxide]	5.61	6.13	
CC(=O)N[C@H](Cc1ccc2ccccc2c1)C(=O)N[C@H](Cc1ccc(Cl)cc1)C(=O)N[C@H](Cc1cccnc1)C(=O)N[C@@H](CO)C(=O)N[C@@H](Cc1ccc(O)cc1)C(=O)N[C@H](CCCNC(N)=O)C(=O)N[C@@H](CC(C)C)C(=O)N[C@@H](CCCNC(=N)N)C(=O)N1CCC[C@H]1C(=O)N[C@H](C)C(N)=O [cetrorelix, reference compound] (Ac-[d2Nal][dPhe(4-Cl)][d3Pal]SY[dCit]LRP[dA]-NH2)			ca. 90%
